Article PMC10146281, “Pharmacokinetic and Pharmacodynamic Characteristics of Pelubiprofen Tromethamine vs. Pelubiprofen in Healthy Subjects” (Pharmaceutics, 2023)
Where two headings read alike, the source gives them in different places.

Legend:
[1] = Study II safety and tolerability evaluation (adverse events); assay type: in vivo, human; conditions: treatment of test (30 mg pelubiprofen tromethamine), 36 subjects evaluated, mild, 'not related'
Description: In both Study I and II, the safety evaluation was performed on subjects administered with the investigational drug at least once. Any clinically significant findings in the interview, physical examination, vital signs, 12-lead electrocardiogram (ECG), the clinical laboratory test, etc., during the study period were collected as adverse events, which were subsequently evaluated for the incidence of serious adverse events, severity, causal relationship, etc. All relevant data were collected through monitoring by the investigator and voluntary reporting by the subjects. To collect additional data, interview and physical examination were performed where necessary. The investigator carried out the follow-up monitoring of the subjects with adverse events until the symptoms subsided and abnormal test values returned to a healthy baseline or until a satisfactory explanation for the observed change could be provided.

[2] = set-up: method as in PMID 34070062; conditions: non-clinical studies; cited from earlier work
cyclooxygenase-2 (COX-2) = biological target: T1, cyclooxygenase-2 (COX-2) (Homo sapiens, UniProt P35354)
T1 sequence (P35354 18-604): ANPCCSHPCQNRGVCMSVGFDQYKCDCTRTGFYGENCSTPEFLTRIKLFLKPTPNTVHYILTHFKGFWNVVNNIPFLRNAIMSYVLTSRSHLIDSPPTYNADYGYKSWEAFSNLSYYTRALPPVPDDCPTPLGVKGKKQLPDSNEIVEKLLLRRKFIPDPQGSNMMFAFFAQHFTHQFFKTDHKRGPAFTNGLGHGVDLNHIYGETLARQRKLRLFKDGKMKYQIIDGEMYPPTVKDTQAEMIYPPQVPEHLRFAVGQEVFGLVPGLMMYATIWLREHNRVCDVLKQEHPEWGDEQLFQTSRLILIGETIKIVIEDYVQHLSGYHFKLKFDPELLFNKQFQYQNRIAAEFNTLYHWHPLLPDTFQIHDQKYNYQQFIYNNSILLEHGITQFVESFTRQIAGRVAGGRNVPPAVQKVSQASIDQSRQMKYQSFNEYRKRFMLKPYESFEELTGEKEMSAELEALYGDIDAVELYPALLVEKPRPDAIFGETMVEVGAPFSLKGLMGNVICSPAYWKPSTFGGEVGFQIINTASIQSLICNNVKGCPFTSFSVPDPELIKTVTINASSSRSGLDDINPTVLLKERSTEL
Description: To analyze the pharmacodynamic (PD) characteristics, approximately 1 mL of blood was sampled from the subjects in Study I, who had agreed to participate in the associated PD evaluation. The blood sampling was performed before administration (0 h) and at the following time points after administration: 0.083 h (5 min), 0.167 h (10 min), 0.33 h (20 min) and 0.5, 0.75, 1, 1.5, 2, 2.5, 3, 3.5, 4, 6, and 8 h. Therefore, for each subject, the blood sampling was performed 15 times in each period. While the PD analysis was performed on the same schedule as the PK analysis, only period 1 and 2 results were included in the analyses, and the post study visit was not performed.
The pharmacodynamic (PD) analysis was performed on the subjects in Study I, who had agreed to participate in the PD evaluation. For pharmacodynamic evaluation, the lipopolysaccharide (LPS) from E. coli O111:B4 (Sigma-Aldrich, Seoul, Republic of Korea) and the prostaglandin E2 (PGE2) enzyme-linked immunosorbent assay (ELISA) monoclonal kit (Cayman Chemical, MI, USA) were used. This study was conducted on healthy subjects, and LPS was added to sampled blood to induce inflammatory gene expression. The following procedures were applied for the PGE2 concentration analysis of subjects in Study I, who had agreed to participate in the pharmacodynamic evaluation.
Into 1.0 mL of sampled blood, 10 μL of lipopolysaccharide (LPS) was added. The mixture was centrifuged at […] and 4 °C for 10 min. By mixing the PGE2 ELISA standard and 1.0 mL of ELISA buffer, the standard reagents were produced at 1000, 500, 250, 125, 62.5, 31.3, 15.6, 7.8 pg/mL concentrations. Subsequently, to each well of the 96-well plate, 50 μL of the standard reagent, PGE2 acetylcholinesterase (AChE) tracer, and PGE2 monoclonal antibody were added. Each plate was then covered with a plastic film to be cultured at 4 °C for 18 h. Then, the wells were washed with the buffer solution 5 times, after which 200 μL of Ellman’s reagent was added to each well. The plate was covered with film once more to be placed on an orbital shaker for 60 min. The plate was read at a wavelength of 410 nm.
Pharmacodynamic (PD) was analyzed with data from the first and second periods. The plasma Prostaglandin E2 (PGE2) concentration in the first and second periods of Study I was measured using the enzyme-linked immunosorbent assay (ELISA) at the same time points as in the PK analysis: before investigational drug administration (0 h) and after drug administration at 0.083 h (5 min), 0.167 h (10 min), 0.33 h (20 min), and 0.5, 0.75, 1, 1.5, 2, 2.5, 3, 3.5, 4, 6, and 8 h. Therefore, for each subject, the measurements were taken 15 times in each period. While the PD analysis was performed on the same schedule as the PK analysis, only period 1 and 2 results were included in the analyses, and the post-study visit was not performed.
The PGE2 concentration and the cyclooxygenase-2 (COX-2) inhibitory effect derived from baseline (0 h time point before drug administration) values for each subject in Study I were visualized. The decreased level of calibrated PGE2 concentration performed in accordance with the concentration at baseline for each subject was tested as the extent of COX-2 inhibition, and the GMR and respective 90% CI of the COX-2 inhibition were applied in the PD analysis.
The pharmacodynamic (PD) data from the subjects in Study I, who had agreed to participate in the PD evaluation, were analyzed as follows to check for outliers. Grubbs’ test was performed when the normality of the data was satisfied; otherwise, a boxplot was drawn for log-transformed values, after which values outside the interquartile range (IQR) were checked for subsequent use in Grubb’s test. For significant outliers, the data excluding the values were analyzed once again.

[3] = set-up: method as in earlier work; conditions: cited from earlier work
[4] = Study I, all subjects N = 30, 25 mg pelubiprofen tromethamine vs. 30 mg pelubiprofen
[5] = Study I, without outliers N = 28, 25 mg pelubiprofen tromethamine vs. 30 mg pelubiprofen

Compound | adverse events [1] | solubility and absorption compared to pelubiprofen [2] | Tmax,i (time of peak baseline-corrected COX-2 inhibition) (cyclooxygenase-2 (COX-2); Study I periods 1 and 2, all subjects N = 30, single oral 25 mg pelubiprofen tromethamine, median (minimum–maximum)) | Tmax,I (time of peak baseline-corrected COX-2 inhibition) (cyclooxygenase-2 (COX-2); Study I periods 1 and 2, without outliers (A03 and A08) N = 28, single oral 25 mg pelubiprofen tromethamine, median (minimum–maximum)) | Geometric Mean Ratio (90% CI) of AUIC (cyclooxygenase-2 (COX-2); [4]) | Geometric Mean Ratio (90% CI) of Imax (cyclooxygenase-2 (COX-2); [4]) | Geometric Mean Ratio (90% CI) of Tmax,i (cyclooxygenase-2 (COX-2); [4]) | maximum COX-2 inhibitory effect compared to the reference (cyclooxygenase-2 (COX-2); Study I, all subjects, 25 mg pelubiprofen tromethamine compared to 30 mg pelubiprofen) | COX-2 inhibitory effect compared to the reference (cyclooxygenase-2 (COX-2); Study I, excluding two outlier subjects (A03 and A08), 25 mg pelubiprofen tromethamine compared to 30 mg pelubiprofen) | Geometric Mean Ratio (90% CI) of AUIC (cyclooxygenase-2 (COX-2); [5]) | Geometric Mean Ratio (90% CI) of Imax (cyclooxygenase-2 (COX-2); [5]) | Geometric Mean Ratio (90% CI) of Tmax,I (cyclooxygenase-2 (COX-2); [5]) | Geometric Mean Ratio (90% CI) of Imax (cyclooxygenase-2 (COX-2); Study I, without outliers N = 28, 25 mg pelubiprofen tromethamine vs. 30 mg pelubiprofen, listed as pelubiprofen tromethamine) | time after administration until which COX-2 inhibition was maintained (cyclooxygenase-2 (COX-2); Study I, single oral 30 mg pelubiprofen) | Tmax,I (time of peak baseline-corrected COX-2 inhibition) (cyclooxygenase-2 (COX-2); human, in vivo, po, 30 mg) | Tmax,PGE2 (cyclooxygenase-2 (COX-2); human, in vivo, po, 30 mg) | Tmax,i (time of peak baseline-corrected COX-2 inhibition) (cyclooxygenase-2 (COX-2); human, in vivo, po, 30 mg) | protein binding rate [3]
CC(C(=O)O)c1ccc(/C=C2\CCCCC2=O)cc1 (stereo not drawn) [Pelubiprofen Tromethamine, pelubiprofen tromethamine] | one case of adverse events | enhanced solubility and absorption | 0.50 (0.00–3.50) h | 0.50 (0.17–3.50) h | 1.09 (0.94–1.27) | 0.98 (0.95–1.02) | 1.01 (0.75–1.35) | approximately 98% | approximately 98% | 1.03 (0.91–1.18) | 0.98 (0.95–1.01) | 1.00 (0.73–1.36) | approximately 0.98 | – | – | – | – | –
CC(C(=O)O)c1ccc(/C=C2\CCCCC2=O)cc1 (stereo not drawn) [Pelubiprofen, 2-[4-(oxocyclohexylidenemethyl)-phenyl] propionic acid] | – | – | – | – | – | – | – | – | – | – | – | – | – | approximately 8 h | 0.50 (0.33–3.50) h | 0.08 (0.00–8.00) h | 0.50 (0.33–3.50) h | high protein binding rate
